What is called Ki is the dissociation constant of the complex between target and ligand, obtained from inhibition or displacement. Usually Emax stands for the size of the effect at its maximum, as opposed to the concentration needed.

SMILES strings stand for the structures. Calls of active or inactive are those of the source. The rule behind the calls is not given here.

These results are taken from ChEMBL document CHEMBL6103537 (J Med Chem, 2025).

The target of assay [1] is T1, Signal transducer and activator of transcription 6 (Homo sapiens, UniProt P42226).
T1 sequence (P42226 whole entry): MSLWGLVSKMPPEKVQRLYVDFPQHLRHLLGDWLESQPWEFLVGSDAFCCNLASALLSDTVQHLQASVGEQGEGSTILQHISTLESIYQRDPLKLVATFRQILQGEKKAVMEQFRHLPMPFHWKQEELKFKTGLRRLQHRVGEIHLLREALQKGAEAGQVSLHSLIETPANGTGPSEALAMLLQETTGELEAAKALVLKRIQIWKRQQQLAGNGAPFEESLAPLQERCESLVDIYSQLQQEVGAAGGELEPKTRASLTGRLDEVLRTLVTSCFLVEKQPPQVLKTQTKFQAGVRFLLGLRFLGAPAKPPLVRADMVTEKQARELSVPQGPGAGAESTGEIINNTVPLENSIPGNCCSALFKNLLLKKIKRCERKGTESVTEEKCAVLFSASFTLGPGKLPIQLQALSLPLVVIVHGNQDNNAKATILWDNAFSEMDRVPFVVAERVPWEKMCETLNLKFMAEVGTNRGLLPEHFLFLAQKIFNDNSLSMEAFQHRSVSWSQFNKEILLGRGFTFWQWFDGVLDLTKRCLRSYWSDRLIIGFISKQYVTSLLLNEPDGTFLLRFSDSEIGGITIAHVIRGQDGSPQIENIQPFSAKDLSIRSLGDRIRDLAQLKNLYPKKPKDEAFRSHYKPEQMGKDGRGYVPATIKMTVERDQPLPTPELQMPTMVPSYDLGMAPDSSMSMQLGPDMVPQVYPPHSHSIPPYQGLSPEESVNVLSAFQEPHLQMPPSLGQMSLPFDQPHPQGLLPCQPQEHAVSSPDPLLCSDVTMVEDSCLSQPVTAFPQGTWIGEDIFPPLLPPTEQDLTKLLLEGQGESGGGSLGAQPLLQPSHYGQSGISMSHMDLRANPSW
As to the kind of experiment: Binding affinity to N-terminal his6-tgged STAT6 (unknown origin) (113 to 658 residues) assessed as inhibition constant incubated for 1 hr by fluorescence polarization assay. A general note: Fluorescence polarisation rises when a labelled molecule tumbles more slowly, as on binding a larger partner.

In assay [2] the target is T2, Signal transducer and activator of transcription 5A (Homo sapiens, UniProt P42229).
T2 sequence (P42229 whole entry): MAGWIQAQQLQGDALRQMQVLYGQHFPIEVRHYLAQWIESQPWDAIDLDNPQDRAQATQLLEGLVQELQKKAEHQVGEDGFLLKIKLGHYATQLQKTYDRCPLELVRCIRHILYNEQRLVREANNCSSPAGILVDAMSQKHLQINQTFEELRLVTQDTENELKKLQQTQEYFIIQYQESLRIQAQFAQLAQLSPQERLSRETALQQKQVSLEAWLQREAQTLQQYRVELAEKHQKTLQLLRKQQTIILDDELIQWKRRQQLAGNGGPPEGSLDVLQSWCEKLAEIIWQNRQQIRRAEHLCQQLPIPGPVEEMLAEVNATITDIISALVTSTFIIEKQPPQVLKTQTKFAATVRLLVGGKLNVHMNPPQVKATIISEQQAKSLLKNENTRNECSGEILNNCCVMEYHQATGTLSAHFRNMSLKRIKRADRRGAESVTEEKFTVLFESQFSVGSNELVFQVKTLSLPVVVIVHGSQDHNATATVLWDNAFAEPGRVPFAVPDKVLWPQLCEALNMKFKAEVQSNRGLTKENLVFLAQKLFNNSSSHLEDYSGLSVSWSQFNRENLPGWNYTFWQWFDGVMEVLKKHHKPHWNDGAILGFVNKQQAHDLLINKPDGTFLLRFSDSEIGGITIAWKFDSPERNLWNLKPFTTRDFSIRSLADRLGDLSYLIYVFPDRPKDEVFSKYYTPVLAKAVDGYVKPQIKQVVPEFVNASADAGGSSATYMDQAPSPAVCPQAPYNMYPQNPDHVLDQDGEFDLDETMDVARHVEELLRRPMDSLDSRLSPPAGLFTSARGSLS
As to the kind of experiment: Binding affinity to STAT5A (unknown origin) assessed as inhibition constant incubated for 1 hr by fluorescence polarization assay.

Assay [3] concerns the target T3, Signal transducer and activator of transcription 5B (Homo sapiens, UniProt P51692).
T3 sequence (P51692 whole entry): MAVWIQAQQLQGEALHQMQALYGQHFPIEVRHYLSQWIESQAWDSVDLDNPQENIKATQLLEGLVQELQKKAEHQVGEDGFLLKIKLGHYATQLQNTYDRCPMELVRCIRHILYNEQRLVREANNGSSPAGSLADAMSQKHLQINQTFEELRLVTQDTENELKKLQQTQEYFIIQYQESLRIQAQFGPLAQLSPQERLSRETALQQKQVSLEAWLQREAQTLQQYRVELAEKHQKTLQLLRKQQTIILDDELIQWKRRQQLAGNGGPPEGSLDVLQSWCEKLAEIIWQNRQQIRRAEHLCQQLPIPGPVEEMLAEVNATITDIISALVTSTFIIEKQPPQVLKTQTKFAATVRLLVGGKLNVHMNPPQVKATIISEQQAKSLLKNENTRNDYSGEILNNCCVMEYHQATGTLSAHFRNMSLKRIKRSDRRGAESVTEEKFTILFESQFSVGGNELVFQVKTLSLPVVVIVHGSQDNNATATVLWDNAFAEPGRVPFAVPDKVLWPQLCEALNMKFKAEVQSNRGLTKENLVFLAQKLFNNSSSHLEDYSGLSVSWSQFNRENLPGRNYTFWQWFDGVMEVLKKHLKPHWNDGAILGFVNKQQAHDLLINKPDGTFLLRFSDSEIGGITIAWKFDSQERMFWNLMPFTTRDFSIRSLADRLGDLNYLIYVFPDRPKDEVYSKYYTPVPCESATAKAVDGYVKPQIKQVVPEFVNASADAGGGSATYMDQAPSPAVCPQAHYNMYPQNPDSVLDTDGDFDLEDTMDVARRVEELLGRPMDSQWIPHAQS
As to the kind of experiment: Binding affinity to STAT5B (unknown origin) assessed as inhibition constant incubated for 1 hr by fluorescence polarization assay.

For assay [4], the target named is T4, Protein cereblon/Signal transducer and activator of transcription 6 (Homo sapiens, UniProt P42226+Q96SW2). As to the kind of experiment: PROTAC activity at STAT6/CRBN in human MV4-11 cells assessed as reduction in STAT6 level at upto 10 uM incubated for 12 hrs by Western blot analysis. In kind it is cell-based. In general terms: In western blotting, separated proteins are transferred to a membrane and probed.

Assay [5] addresses Protein cereblon/Signal transducer and activator of transcription 5A/Signal transducer and activator of transcription 5B (Homo sapiens) (UniProt P42229+P51692+Q96SW2). The experiment in a line: PROTAC activity at STAT5/CRBN in human PBMC cells assessed as reduction in STAT5 level at 10 uM incubated for 18 hrs by Western blot analysis relative to control. The format is cell-based.

The target in assay [6] is Protein cereblon/Signal transducer and activator of transcription 1-alpha/beta (Homo sapiens) (UniProt P42224+Q96SW2). As to the kind of experiment: PROTAC activity at STAT1/CRBN in human PBMC cells assessed as reduction in STAT1 level at 10 uM incubated for 18 hrs by Western blot analysis relative to control. The format is cell-based.
Assay [7] deals with Protein cereblon/Signal transducer and activator of transcription 2 (Homo sapiens) (UniProt Q96SW2+P52630). The experiment in a line: PROTAC activity at STAT2/CRBN in human PBMC cells assessed as reduction in STAT2 level at 10 uM incubated for 18 hrs by Western blot analysis relative to control. The format is cell-based.
The target of assay [8] is Protein cereblon/Signal transducer and activator of transcription 3 (Homo sapiens) (UniProt P40763+Q96SW2). As to the kind of experiment: PROTAC activity at STAT3/CRBN in human PBMC cells assessed as reduction in STAT3 level at 10 uM incubated for 18 hrs by Western blot analysis relative to control. The format is cell-based.
In assay [9] the target is Protein cereblon/Signal transducer and activator of transcription 4 (Homo sapiens) (UniProt Q96SW2+Q14765). As to the kind of experiment: PROTAC activity at STAT4/CRBN in human PBMC cells assessed as reduction in STAT4 level at 10 uM incubated for 18 hrs by Western blot analysis relative to control. The format is cell-based.
Assay [10] has as its target T4, Protein cereblon/Signal transducer and activator of transcription 6. The experiment in a line: PROTAC activity at STAT6/CRBN in human L-1236 cells assessed as reduction in STAT6 level at 10 uM incubated for 24 hrs by Western blot analysis. In kind it is cell-based.
Assay [11] has the same target. As to the kind of experiment: PROTAC activity at STAT6 at Y641 residue/CRBN in human L-1236 cells assessed as reduction in STAT6 level at 10 uM incubated for 24 hrs by Western blot analysis. The format is cell-based.
Assay [12] has the same target. As to the kind of experiment: PROTAC activity at STAT6/CRBN in human MV4-11 cells assessed as reduction in STAT6 level at 0.5 uM measured upto 1200 mins by HiBiT bioluminescence assay. In kind it is cell-based. For orientation: The HiBiT peptide binds its large partner to form an active luciferase.
For assay [13] the target is unchanged. As to the kind of experiment: PROTAC activity at STAT6/CRBN in human MV4-11 cells assessed as reduction in STAT6 level incubated for 12 hrs by Western blot analysis. In kind it is cell-based.
Assay [14] shares this target. The experiment in a line: PROTAC activity at STAT6/CRBN in human MV4-11 cells assessed as reduction in STAT6 level at 5 uM incubated for 12 hrs by Western blot analysis relative to control. The format is cell-based.

Turning to `CC(C)(C)[C@H](NC(=O)c1cc2cc(C(F)(F)P(=O)(O)O)ccc2s1)C(=O)N1CCC[C@H]1C(=O)N1CCSC(c2ccccc2)C1` (stereo partly drawn), the Ki was 80 nM in assay [1], 1.4 µM in assay [2] and 1800 nM in [3].
With `CC(C)(C)[C@H](NC(=O)c1cc2cc(C(F)(F)P(=O)(O)O)ccc2s1)C(=O)N1CCC[C@H]1C(=O)N1CCOC(c2ccccc2F)C1` (stereo partly drawn), the inhibition constant (Ki) in assay [1] was 110 nM; in [2], more than 5 µM; in assay [3] it was 2400 nM.
In the case of `CC(C)(C)[C@H](NC(=O)c1cc2cc(C(F)(F)P(=O)(O)O)ccc2s1)C(=O)N1CCC[C@H]1C(=O)N1CCOC(Cc2ccccc2)C1` (stereo partly drawn), the Ki in assay [1] is 1300 nM; in assay [2] it was more than 5 µM; in [3] it was more than 5000 nM.
The corresponding values for `CC(C)(C)[C@H](NC(=O)c1cc2cc(C(F)(F)P(=O)(O)O)ccc2s1)C(=O)N1CCC[C@H]1C(=O)N1CCOC(C2CCCCC2)C1` (stereo partly drawn) are 500 nM, 1.8 µM and 200 nM.
The matching figures for `CC(C)(C)[C@H](NC(=O)c1cc2cc(C(F)(F)P(=O)(O)O)ccc2s1)C(=O)N1CCC[C@H]1C(=O)N1CCOC(c2ccc(F)cc2)C1` (stereo partly drawn): 220 nM, more than 5 µM and 4400 nM.
The matching figures for `CC(C)(C)[C@H](NC(=O)c1cc2cc(C(F)(F)P(=O)(O)O)ccc2s1)C(=O)N1CCC[C@H]1C(=O)N1CCOC(c2cccnc2)C1` (stereo partly drawn): 310 nM, more than 5 µM and more than 5000 nM.
With `CC(C)(C)[C@H](NC(=O)c1cc2cc(C(F)(F)P(=O)(O)O)ccc2s1)C(=O)N1CCC[C@H]1C(=O)N1CCOC(c2ccc3ccccc3c2)C1` (stereo partly drawn), the inhibition constant (Ki) in assay [1] worked out at 83 nM; in assay [2], 1.4 µM; in assay [3], 800 nM.
The matching figures for `CC(C)(C)[C@H](NC(=O)c1cc2cc(C(F)(F)P(=O)(O)O)ccc2s1)C(=O)N1CCC[C@H]1C(=O)N1CCOC(c2ccc(F)cc2F)C1` (stereo partly drawn): 420 nM, more than 5 µM and more than 5000 nM.
For the compound `CN1C(=O)CCC(N2Cc3c(C#CCCCCCO[C@H]4C[C@@H](C(=O)N5CCO[C@H](c6ccccc6)C5)N(C(=O)[C@@H](NC(=O)c5cc6cc(C(F)(F)P(=O)(O)O)ccc6s5)C(C)(C)C)C4)cccc3C2=O)C1=O` (stereo partly drawn), the outcome in assay [4] was inactive. Further, the Activity entry in [5], in [6], in assay [7], in [8], in assay [9] and in assay [10] was “No effect” throughout. In addition, the Activity entry in assay [11] is “No effect”.
Take `CC(C)(C)[C@H](NC(=O)c1cc2cc(C(F)(F)P(=O)(O)O)ccc2s1)C(=O)N1CCC[C@H]1C(=O)N1CCOC(c2ccncc2)C1` (stereo partly drawn): the Ki in [1] is 1100 nM; in assay [2] it was more than 5 µM; in assay [3] it was more than 5000 nM.
In the case of `NS(=O)(=O)OC[C@@H]1C[C@@H](n2ccc3c(N[C@H]4CCc5ccccc54)ncnc32)C[C@@H]1O`, in assay [12], the Activity result is “No effect”.
`CC(C)(C)[C@H](NC(=O)c1cc2cc(C(F)(F)P(=O)(O)O)ccc2s1)C(=O)N1C[C@@H](NC(=O)CCCCCC#Cc2ccc3c(c2)CN(C2CCC(=O)NC2=O)C3=O)C[C@H]1C(=O)N1CCO[C@H](c2ccccc2)C1` (stereo partly drawn): the DC50 in assay [13] came to 200 nM. Besides, in [14], the Emax is more than 90%.
